Test results published in ChEMBL document CHEMBL5291721, “A preclinical secondary pharmacology resource illuminates target-adverse drug reaction associations of marketed drugs” (Nat Commun, 2023).

What was measured:
[1] = biological target: Bile salt export pump (Homo sapiens, UniProt O95342); assay type: functional
[2] = biological target: T1, Adenosine receptor A1 (Homo sapiens, UniProt P30542)
T1 sequence (P30542 whole entry): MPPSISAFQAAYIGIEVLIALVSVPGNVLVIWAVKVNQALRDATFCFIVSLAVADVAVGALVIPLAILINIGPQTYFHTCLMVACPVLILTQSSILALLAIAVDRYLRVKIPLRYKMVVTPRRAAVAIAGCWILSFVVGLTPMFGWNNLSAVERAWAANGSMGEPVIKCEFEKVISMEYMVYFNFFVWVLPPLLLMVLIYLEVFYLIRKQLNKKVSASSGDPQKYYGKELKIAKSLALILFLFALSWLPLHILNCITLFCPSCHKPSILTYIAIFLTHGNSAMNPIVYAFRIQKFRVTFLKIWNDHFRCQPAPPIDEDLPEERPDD

[3] = biological target: T2, Alpha-2A adrenergic receptor (Homo sapiens, UniProt P08913); assay type: functional, cell-based
T2 sequence (P08913 whole entry): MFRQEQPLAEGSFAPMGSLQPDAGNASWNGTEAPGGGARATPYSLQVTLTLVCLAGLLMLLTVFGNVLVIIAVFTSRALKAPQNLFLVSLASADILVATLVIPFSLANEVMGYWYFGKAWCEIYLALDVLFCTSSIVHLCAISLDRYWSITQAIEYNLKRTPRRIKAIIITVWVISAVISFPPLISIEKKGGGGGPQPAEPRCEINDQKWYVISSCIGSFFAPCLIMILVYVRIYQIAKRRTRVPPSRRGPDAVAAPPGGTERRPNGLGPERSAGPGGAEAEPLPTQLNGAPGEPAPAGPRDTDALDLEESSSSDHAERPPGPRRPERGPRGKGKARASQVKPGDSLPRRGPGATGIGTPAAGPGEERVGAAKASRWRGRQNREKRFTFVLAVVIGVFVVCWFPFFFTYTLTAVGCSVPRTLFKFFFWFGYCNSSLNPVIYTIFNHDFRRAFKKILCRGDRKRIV

[4] = biological target: T3, Cholecystokinin receptor type A (Homo sapiens, UniProt P32238)
T3 sequence (P32238 whole entry): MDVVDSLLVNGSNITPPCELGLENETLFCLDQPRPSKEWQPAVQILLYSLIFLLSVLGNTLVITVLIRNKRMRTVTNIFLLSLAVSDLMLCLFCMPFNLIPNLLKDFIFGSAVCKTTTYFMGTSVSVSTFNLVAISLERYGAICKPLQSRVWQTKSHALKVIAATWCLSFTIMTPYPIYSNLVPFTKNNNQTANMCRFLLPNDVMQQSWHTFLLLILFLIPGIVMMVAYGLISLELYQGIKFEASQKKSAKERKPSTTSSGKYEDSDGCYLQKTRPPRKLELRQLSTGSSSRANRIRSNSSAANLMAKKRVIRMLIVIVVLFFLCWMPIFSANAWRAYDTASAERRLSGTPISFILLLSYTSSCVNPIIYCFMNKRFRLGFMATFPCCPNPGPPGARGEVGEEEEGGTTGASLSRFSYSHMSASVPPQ

[5] = biological target: Neuronal acetylcholine receptor subunit alpha-4 (Homo sapiens, UniProt P43681)
[6] = biological target: Growth hormone secretagogue receptor type 1 (Homo sapiens, UniProt Q92847)
[7] = biological target: 5-hydroxytryptamine receptor 2B (Homo sapiens, UniProt P41595); assay type: functional, cell-based
[8] = biological target: T4, 5-hydroxytryptamine receptor 3A (Homo sapiens, UniProt P46098); assay type: functional
T4 sequence (P46098 whole entry): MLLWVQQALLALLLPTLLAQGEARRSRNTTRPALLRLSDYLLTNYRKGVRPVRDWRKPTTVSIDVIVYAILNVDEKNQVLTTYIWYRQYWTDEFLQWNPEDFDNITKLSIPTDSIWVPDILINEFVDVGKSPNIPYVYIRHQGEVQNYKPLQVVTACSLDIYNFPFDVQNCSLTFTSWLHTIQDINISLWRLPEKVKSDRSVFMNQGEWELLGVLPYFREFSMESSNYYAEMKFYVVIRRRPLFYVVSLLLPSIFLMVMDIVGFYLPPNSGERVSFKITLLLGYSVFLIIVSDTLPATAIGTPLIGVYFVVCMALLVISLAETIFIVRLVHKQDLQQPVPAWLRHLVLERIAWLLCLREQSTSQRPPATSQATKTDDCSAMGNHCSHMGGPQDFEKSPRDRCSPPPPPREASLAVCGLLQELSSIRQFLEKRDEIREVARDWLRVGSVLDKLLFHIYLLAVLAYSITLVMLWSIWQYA

[9] = biological target: Voltage-gated inwardly rectifying potassium channel KCNH2 (Homo sapiens, UniProt Q12809); assay type: functional; conditions: read-out: AC50
[10] = biological target: Delta-type opioid receptor (Homo sapiens, UniProt P41143)
[11] = biological target: 3',5'-cyclic-AMP phosphodiesterase 4D (Homo sapiens, UniProt Q08499); assay type: functional
[12] = biological target: Sodium-dependent noradrenaline transporter (Homo sapiens, UniProt P23975)
[13] = biological target: D(3) dopamine receptor (Homo sapiens, UniProt P35462)
[14] = biological target: T5, Prostaglandin G/H synthase 1 (Rattus norvegicus, UniProt Q63921); assay type: functional
T5 sequence (Q63921 whole entry): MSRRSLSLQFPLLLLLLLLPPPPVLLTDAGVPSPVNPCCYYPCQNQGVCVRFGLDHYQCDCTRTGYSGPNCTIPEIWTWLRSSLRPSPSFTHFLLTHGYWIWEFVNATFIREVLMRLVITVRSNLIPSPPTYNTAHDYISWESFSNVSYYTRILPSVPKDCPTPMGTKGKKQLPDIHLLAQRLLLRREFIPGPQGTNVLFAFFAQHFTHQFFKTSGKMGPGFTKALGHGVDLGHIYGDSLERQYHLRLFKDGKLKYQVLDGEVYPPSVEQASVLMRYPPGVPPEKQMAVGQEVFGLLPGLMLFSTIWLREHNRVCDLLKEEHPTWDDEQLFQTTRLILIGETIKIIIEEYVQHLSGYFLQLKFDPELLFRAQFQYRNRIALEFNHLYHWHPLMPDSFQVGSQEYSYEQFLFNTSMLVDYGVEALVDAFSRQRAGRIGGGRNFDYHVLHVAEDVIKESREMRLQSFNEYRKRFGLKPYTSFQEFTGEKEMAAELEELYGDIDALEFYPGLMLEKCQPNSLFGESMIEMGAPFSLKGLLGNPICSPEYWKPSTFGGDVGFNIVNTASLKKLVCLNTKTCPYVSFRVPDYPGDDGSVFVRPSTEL
Also: assay procedure not described here.

Growth hormone secretagogue receptor type 1, sequence (Q92847 whole entry): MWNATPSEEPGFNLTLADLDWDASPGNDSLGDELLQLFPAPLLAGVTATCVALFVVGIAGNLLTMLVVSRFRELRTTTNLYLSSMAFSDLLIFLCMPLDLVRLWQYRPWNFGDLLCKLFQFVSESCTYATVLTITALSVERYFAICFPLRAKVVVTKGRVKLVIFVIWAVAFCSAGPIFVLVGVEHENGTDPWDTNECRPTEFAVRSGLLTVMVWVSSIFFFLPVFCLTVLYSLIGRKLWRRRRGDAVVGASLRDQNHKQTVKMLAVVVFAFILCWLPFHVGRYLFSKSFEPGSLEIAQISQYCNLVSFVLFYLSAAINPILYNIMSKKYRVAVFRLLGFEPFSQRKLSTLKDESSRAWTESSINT
Sodium-dependent noradrenaline transporter, sequence (P23975 whole entry): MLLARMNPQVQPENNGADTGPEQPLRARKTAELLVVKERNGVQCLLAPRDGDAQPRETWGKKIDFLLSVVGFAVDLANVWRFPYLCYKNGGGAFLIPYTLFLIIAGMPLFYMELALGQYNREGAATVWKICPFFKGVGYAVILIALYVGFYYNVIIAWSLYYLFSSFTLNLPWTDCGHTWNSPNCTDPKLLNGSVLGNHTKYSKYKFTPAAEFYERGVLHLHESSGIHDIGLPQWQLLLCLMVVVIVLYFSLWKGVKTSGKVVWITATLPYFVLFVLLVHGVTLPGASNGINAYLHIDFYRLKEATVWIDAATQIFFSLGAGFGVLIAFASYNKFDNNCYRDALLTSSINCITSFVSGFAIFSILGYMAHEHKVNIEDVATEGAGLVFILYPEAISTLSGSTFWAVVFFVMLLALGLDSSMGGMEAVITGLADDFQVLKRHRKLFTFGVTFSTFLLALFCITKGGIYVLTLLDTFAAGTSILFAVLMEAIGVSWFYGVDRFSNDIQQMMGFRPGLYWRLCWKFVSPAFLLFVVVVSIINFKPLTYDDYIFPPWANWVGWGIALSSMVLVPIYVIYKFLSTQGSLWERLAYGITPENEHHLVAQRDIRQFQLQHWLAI
Delta-type opioid receptor, sequence (P41143 whole entry): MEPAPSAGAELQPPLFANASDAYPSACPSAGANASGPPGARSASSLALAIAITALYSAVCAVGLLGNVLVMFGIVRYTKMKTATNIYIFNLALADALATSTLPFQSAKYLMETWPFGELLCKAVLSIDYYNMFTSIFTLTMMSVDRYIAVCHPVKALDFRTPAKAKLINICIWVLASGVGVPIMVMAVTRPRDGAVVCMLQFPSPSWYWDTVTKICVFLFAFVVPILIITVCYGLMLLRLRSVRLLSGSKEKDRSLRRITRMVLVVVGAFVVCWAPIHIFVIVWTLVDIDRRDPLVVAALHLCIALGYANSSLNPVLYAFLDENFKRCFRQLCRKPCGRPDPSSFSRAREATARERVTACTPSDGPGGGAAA
Bile salt export pump, sequence (O95342 whole entry): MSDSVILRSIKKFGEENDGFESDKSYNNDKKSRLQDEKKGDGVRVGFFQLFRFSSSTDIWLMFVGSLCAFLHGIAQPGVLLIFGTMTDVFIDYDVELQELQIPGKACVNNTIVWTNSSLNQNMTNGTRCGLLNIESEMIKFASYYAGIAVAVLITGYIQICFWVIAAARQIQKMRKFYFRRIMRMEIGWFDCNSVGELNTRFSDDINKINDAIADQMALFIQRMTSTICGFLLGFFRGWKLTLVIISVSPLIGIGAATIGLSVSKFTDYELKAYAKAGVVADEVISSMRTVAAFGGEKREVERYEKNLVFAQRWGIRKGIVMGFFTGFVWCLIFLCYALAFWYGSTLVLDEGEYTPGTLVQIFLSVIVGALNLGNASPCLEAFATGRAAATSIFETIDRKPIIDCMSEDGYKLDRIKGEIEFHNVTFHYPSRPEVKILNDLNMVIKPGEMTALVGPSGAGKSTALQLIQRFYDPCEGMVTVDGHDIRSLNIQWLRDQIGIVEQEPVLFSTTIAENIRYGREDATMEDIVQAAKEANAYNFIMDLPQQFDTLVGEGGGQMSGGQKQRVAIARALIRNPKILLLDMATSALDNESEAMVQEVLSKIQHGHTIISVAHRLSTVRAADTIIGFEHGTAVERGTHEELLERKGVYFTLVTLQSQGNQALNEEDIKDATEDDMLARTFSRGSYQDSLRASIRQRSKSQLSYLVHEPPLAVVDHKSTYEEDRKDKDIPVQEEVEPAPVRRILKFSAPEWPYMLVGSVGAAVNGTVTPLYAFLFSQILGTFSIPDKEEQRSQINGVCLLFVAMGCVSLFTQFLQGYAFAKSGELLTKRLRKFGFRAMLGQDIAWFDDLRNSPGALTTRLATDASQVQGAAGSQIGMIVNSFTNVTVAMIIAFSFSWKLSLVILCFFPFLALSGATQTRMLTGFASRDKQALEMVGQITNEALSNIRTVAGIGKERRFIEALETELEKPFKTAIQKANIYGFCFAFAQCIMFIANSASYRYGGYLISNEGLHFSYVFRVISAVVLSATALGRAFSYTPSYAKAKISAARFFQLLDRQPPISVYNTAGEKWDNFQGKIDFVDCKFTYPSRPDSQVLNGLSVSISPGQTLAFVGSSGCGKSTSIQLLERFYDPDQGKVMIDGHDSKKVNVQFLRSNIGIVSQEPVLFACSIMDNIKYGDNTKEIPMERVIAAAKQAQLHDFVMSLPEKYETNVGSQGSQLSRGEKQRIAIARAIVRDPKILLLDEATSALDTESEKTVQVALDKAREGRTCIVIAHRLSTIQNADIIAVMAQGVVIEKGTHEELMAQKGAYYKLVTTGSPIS
5-hydroxytryptamine receptor 2B, sequence (P41595 whole entry): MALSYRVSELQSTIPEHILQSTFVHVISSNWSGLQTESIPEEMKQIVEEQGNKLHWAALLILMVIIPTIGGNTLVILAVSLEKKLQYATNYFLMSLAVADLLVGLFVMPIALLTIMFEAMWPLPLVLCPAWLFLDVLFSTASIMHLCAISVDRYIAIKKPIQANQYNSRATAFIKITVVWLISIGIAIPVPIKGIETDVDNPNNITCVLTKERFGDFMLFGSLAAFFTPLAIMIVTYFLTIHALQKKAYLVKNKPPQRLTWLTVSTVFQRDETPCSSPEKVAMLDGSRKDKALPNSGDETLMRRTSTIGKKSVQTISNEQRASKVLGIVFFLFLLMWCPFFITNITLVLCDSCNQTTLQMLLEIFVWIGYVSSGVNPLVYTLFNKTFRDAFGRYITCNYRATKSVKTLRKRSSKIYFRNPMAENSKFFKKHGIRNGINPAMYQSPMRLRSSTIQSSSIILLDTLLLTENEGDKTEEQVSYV
Neuronal acetylcholine receptor subunit alpha-4, sequence (P43681 whole entry): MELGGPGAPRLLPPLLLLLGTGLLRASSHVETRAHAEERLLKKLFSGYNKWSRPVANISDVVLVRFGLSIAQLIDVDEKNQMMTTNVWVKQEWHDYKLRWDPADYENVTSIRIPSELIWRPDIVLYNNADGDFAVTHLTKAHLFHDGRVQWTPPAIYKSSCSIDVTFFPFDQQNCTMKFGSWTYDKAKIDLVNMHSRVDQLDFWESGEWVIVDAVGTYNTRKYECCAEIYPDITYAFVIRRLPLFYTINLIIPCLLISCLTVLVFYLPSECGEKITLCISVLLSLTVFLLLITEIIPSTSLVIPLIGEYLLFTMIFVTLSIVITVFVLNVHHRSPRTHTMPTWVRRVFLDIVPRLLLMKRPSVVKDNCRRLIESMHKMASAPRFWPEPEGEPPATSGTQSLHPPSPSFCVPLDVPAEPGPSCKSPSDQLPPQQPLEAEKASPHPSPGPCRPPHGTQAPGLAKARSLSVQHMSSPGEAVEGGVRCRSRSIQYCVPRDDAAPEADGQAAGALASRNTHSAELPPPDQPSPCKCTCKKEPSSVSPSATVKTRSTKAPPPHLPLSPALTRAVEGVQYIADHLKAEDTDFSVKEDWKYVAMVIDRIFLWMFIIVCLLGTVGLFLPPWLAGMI
D(3) dopamine receptor, sequence (P35462 whole entry): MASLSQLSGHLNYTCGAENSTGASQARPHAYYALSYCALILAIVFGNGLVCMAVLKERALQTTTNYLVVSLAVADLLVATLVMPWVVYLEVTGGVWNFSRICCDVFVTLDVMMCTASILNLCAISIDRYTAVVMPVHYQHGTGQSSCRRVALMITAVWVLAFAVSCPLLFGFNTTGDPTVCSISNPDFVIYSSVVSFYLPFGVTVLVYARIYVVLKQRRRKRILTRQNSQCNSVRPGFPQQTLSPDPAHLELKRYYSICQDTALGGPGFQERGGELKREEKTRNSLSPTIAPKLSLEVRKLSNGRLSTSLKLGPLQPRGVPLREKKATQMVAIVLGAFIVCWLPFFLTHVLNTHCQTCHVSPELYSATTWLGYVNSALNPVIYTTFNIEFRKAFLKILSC
3',5'-cyclic-AMP phosphodiesterase 4D, sequence (Q08499 whole entry): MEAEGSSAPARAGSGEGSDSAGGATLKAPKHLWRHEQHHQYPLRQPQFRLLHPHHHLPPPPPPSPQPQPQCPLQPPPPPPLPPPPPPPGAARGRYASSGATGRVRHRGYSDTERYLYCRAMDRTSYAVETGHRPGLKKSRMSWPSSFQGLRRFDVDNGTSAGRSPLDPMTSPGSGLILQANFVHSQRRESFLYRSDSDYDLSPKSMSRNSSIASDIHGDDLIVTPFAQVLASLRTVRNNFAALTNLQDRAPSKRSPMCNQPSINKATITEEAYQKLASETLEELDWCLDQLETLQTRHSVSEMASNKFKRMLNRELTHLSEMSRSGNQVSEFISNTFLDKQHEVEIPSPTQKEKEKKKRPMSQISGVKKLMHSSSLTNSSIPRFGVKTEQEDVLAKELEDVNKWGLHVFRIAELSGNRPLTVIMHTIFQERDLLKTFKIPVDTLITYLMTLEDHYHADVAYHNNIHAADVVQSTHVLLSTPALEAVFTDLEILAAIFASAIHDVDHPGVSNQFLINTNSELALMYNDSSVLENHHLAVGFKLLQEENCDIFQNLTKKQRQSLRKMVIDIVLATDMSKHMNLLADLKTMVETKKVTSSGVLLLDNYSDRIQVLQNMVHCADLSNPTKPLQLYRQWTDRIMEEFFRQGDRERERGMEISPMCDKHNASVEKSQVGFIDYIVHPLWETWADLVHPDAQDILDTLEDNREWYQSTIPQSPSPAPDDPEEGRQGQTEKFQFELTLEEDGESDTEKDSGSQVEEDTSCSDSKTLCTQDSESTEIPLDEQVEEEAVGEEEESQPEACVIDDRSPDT

| Compound | AC50 [1] | AC50 [2] | AC50 [3] | AC50 [4] | AC50 [5] | AC50 [6] | AC50 [7] | AC50 [8] | AC50 [9] | AC50 [10] | AC50 [11] | AC50 [12] | AC50 [13] | AC50 [14] |
| --- | --- | --- | --- | --- | --- | --- | --- | --- | --- | --- | --- | --- | --- | --- |
| CCOC(=O)Nc1ccc(NCc2ccc(F)cc2)nc1N [FLUPIRTINE] | 85 µM | > 30 µM | 23 µM | > 30 µM | > 30 µM | > 30 µM | > 30 µM | > 30 µM | 27 µM | > 30 µM | > 30 µM | > 30 µM | > 30 µM |  |
| CS(=O)(=O)Nc1ccc([N+](=O)[O-])cc1Oc1ccccc1 [NIMESULIDE] | 110 µM |  | > 30 µM | 6.2 µM | 21 µM | 30 µM |  | > 30 µM | > 30 µM | > 30 µM | > 30 µM | 19 µM | > 30 µM | > 30 µM |
| c1cnc2cc3c(cc2n1)[C@@H]1CNC[C@H]3C1 [VARENICLINE] | > 300 µM | > 30 µM | > 30 µM | > 30 µM |  | > 30 µM | > 30 µM | 13 µM | > 30 µM | > 30 µM | > 30 µM | > 30 µM | > 30 µM | > 30 µM |
| CC(C)NCC(O)COc1ccc(CC(N)=O)cc1 (configuration not stated) [ATENOLOL] | > 300 µM | > 30 µM | > 30 µM | > 30 µM | > 30 µM | > 30 µM |  | > 30 µM |  | > 30 µM | > 30 µM | > 30 µM | > 30 µM | > 30 µM |
| CO[C@@H]1[C@@H](OC(N)=O)[C@@H](O)[C@H](Oc2ccc3c(O)c(NC(=O)c4ccc(O)c(CC=C(C)C)c4)c(=O)oc3c2C)OC1(C)C [NOVOBIOCIN] | 220 µM | > 30 µM | > 30 µM | > 30 µM | > 30 µM | > 30 µM | > 30 µM | > 30 µM |  | > 30 µM | > 30 µM | > 30 µM | > 30 µM | > 30 µM |
| CN1CC2c3ccccc3Oc3ccc(Cl)cc3C2C1 (configuration not stated) [ASENAPINE] | 270 µM | > 30 µM | 0.079 µM | > 30 µM | > 30 µM | 24 µM | 0.0013 µM | 18 µM |  | > 30 µM | > 30 µM | 17 µM | 0.0044 µM | > 30 µM |
| CC(=O)Oc1ccccc1C(=O)O [ASPIRIN] | > 300 µM | > 30 µM | > 10 µM | > 30 µM | > 10 µM | > 30 µM | > 10 µM | > 30 µM | > 30 µM | > 30 µM | > 30 µM | > 30 µM | > 30 µM |  |
| OCCOCCN1CCN(C(c2ccccc2)c2ccc(Cl)cc2)CC1 (configuration not stated) [HYDROXYZINE] | 270 µM | > 30 µM | > 10 µM | > 30 µM | > 10 µM | > 30 µM | 2.2 µM | > 30 µM |  | > 30 µM | > 30 µM | > 10 µM | 0.29 µM | > 30 µM |
| CN(C)CCCC1(c2ccc(F)cc2)OCc2cc(C#N)ccc21 (configuration not stated) [CITALOPRAM] | > 300 µM | > 30 µM | > 10 µM | > 30 µM |  | > 30 µM | 0.678 µM | > 30 µM |  | > 30 µM | > 30 µM |  |  | > 30 µM |
| C[C@H](Nc1ncnc2[nH]cnc12)c1cc2cccc(Cl)c2c(=O)n1-c1ccccc1 [DUVELISIB] | 45 µM | > 30 µM | > 30 µM | > 30 µM | > 30 µM | > 30 µM | > 30 µM | > 30 µM |  | > 30 µM | > 30 µM | > 30 µM | > 30 µM | > 30 µM |
| C[C@H](CS)C(=O)N1CCC[C@H]1C(=O)O [CAPTOPRIL] | > 300 µM | > 30 µM | > 10 µM | > 30 µM | > 10 µM | > 30 µM | > 10 µM | > 30 µM |  | > 30 µM | > 30 µM | > 30 µM | > 30 µM | > 30 µM |
| Cn1cnc2c(F)c(Nc3ccc(Br)cc3F)c(C(=O)NOCCO)cc21 [BINIMETINIB] | 87 µM | > 30 µM | > 30 µM | > 30 µM | > 30 µM | > 30 µM | > 30 µM | > 30 µM |  | > 30 µM | > 30 µM | > 30 µM | > 30 µM | > 30 µM |
| Nc1nnc(-c2cccc(Cl)c2Cl)c(N)n1 [LAMOTRIGINE] | > 300 µM | > 30 µM | > 10 µM | > 30 µM | > 10 µM | > 30 µM | > 10 µM | > 30 µM |  | > 30 µM | > 30 µM | > 10 µM | > 10 µM | > 30 µM |
| CCC[C@@]1(CCc2ccccc2)CC(O)=C([C@H](CC)c2cccc(NS(=O)(=O)c3ccc(C(F)(F)F)cn3)c2)C(=O)O1 | 3.2 µM | > 30 µM | 8.6 µM | 27 µM | > 30 µM | > 30 µM | 7.5 µM | > 30 µM |  | 16 µM | 29 µM | > 30 µM | > 30 µM | 5.8 µM |
